# Results published in US7897602B2, “Indolinone compounds as kinase inhibitors” (Development Center for Biotechnology, priority 2009, dated 2011).
# What was measured:
# Assay type in all cases: biochemical
# PDGFR-β kinase = molecular target: T1, PDGFR-β kinase (Homo sapiens, UniProt P09619); assay: PDGFR-β kinase assay (33P incorporation into Poly(Glu-Tyr)); settings: 500 nM test compound
# T1 construct: recombinant N-terminal 6×His-tagged PDGFR-β kinase domain construct expressed by baculovirus; 6xHis (N); made in house
# Description: Inhibition of PDGFR-β kinase activity by compounds disclosed herein was quantified by measuring the amount of [^33P] incorporated into the substrate in the presence of a test compound. Briefly, a reaction mixture of 25 μL final volume containing 55 ng of PDGFR-β kinase (obtained by purifying recombinant N-terminal 6×His-tagged PDGFR-β kinase domain construct expressed by baculovirus), 2.5 μg of the substrate (Poly (Glu-Tyr, 4:1, Sigma)), kinase reaction buffer (20 mM MOPS pH 7.0, 1 mM EDTA, 5% glycerol, 0.01% Brij-35, 0.1% β-mercaptoethanol, 1 mg/mL BSA, 2 mM MnCl2, 30 μM ATP, 0.1 μCi per well [^33P]-γ-ATP (2,500-3,000 Ci/mmol)), and a test compound (500 nM, diluted with 4% DMSO) or DMSO (as the control) was incubated at 30° C. for 30 minutes. The reaction was stopped by adding 5 μL of 3% phosphoric acid solution. The resultant reaction solution was then harvested onto a filter plate (UniFilter-96 GF/B, PerkinElmer), washed 20 times for 5 min with d.d. H2O, and followed by the addition of 30 μL of MicroScint™-20 Cocktail (PerkinElmer). The plate was then sealed and counted using a TopCount scintillation detector (PerkinElmer). The percentage of inhibition rate of the test compound was calculated by dividing the retained radioactivity of the test sample with the retained radioactivity of the control sample and shown in Table 3.
# Aurora A kinase = molecular target: T2, Aurora A kinase (Homo sapiens, UniProt O14965); assay: Aurora A kinase assay ([γ-33P]ATP, CHOCKtide substrate)
# T2 construct: purchased Upstate
# T2 sequence (O14965 1-403): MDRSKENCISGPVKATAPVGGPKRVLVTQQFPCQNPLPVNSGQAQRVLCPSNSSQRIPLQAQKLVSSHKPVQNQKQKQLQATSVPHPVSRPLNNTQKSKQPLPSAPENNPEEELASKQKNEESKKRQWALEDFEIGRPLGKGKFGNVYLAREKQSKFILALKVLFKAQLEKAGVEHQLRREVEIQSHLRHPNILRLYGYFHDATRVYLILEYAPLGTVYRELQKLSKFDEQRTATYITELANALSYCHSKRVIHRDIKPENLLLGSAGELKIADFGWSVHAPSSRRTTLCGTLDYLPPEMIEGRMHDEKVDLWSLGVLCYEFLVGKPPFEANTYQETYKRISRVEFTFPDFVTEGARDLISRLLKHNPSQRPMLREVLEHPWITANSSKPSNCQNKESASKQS
# Summary of the method: (§1)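 Radiometric filter-binding format: 33P incorporation into CHOCKtide counted after acid stop and filtration. Reactions ran 30 min at 33 °C, Aurora A with 10 μM ATP, Aurora B with 40 μM ATP. IC50 taken as concentration giving half-maximal kinase inhibition.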
# Aurora B kinase = molecular target: T3, Aurora B kinase (Homo sapiens, UniProt Q96GD4); assay: Aurora B kinase assay ([γ-33P]ATP, CHOCKtide substrate)
# T3 construct: purchased Cell signaling
# Summary of the method: as §1
# T1 sequence (P09619 600-962 limits assumed): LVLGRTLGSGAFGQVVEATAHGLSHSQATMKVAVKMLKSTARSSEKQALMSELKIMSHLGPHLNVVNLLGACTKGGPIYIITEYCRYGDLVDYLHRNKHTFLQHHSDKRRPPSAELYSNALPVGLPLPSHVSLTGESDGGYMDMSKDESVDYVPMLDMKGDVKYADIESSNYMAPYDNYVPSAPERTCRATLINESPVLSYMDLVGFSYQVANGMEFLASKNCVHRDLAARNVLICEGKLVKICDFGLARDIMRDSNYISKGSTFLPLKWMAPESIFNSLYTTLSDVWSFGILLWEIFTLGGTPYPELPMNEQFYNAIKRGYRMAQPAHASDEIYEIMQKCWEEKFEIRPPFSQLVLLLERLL
# T3 sequence (Q96GD4 whole entry): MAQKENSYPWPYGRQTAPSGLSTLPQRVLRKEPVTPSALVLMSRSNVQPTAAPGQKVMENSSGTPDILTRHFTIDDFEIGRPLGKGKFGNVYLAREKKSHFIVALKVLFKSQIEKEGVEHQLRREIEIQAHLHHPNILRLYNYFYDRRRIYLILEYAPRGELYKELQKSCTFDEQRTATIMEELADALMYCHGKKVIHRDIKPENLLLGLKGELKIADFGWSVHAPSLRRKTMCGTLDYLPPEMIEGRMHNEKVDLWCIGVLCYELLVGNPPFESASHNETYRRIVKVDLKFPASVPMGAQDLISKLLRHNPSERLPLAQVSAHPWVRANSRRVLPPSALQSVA
inhibition at 0.5 µM (PDGFR-β kinase),IC50 (Aurora A kinase),inhibition at 1 µM (Aurora A kinase; 1.0 μM test compound),IC50 (Aurora B kinase),inhibition at 1 µM (Aurora B kinase; 1.0 μM test compound),"Aurora A kinase assay Inhibition at 1.0 μM (%) (Aurora A kinase; 1.0 μM test compound, 1 µM)","Aurora B kinase assay Inhibition at 1.0 μM (%) (Aurora B kinase; 1.0 μM test compound, 1 µM)",Compound
54%,1780 nM,32.6%,5920 nM,2.3%,–,–,"CCOC(=O)CCc1c(/C=C2\C(=O)Nc3ccccc32)[nH]c2c1C(=O)CCC2 [DCB-70049, (Z)-3-((3-(3-ethoxy-3-oxopropyl)-4-oxo-4,5,6,7-tetrahydro-1H-indol-2-yl)methylene)indolin-2-one]"
54.8%,209 nM,74.8%,–,13%,–,–,"O=C(O)CCc1c(/C=C2\C(=O)Nc3ccccc32)[nH]c2c1C(=O)CCC2 [DCB-70052, (Z)-3-((3-carboxyethyl-4-oxo-4,5,6,7-tetrahydro-1H-indol-2-yl)methylene)indolin-2-one]"
82.3%,1980 nM,–,–,–,38.2%,3.5%,"CCOC(=O)CCc1c(/C=C2\C(=O)Nc3ccc(F)cc32)[nH]c2c1C(=O)CCC2 [DCB-70053, (Z)-5-fluoro-3-((3-(3-ethoxy-3-oxopropyl)-4-oxo-4,5,6,7-tetrahydro-1H-indol-2-yl)methylene)indolin-2-one]"
84.1%,–,55%,–,7.2%,–,–,"CCOC(=O)CCc1c(/C=C2\C(=O)Nc3ccc(Br)cc32)[nH]c2c1C(=O)CCC2 [DCB-70056, (Z)-5-bromo-3-((3-(3-ethoxy-3-oxopropyl)-4-oxo-4,5,6,7-tetrahydro-1H-indol-2-yl)methylene)indolin-2-one]"
89.3%,211 nM,89.5%,–,6.8%,–,–,"O=C(O)CCc1c(/C=C2\C(=O)Nc3ccc(Br)cc32)[nH]c2c1C(=O)CCC2 [DCB-70057, (Z)-5-bromo-3-((3-carboxyethyl-4-oxo-4,5,6,7-tetrahydro-1H-indol-2-yl)methylene)indolin-2-one]"
30.5%,–,17.7%,–,-1%,–,–,"CCOC(=O)CCc1c(/C=C2\C(=O)Nc3ccc(-c4ccc(O)c(OC)c4)cc32)[nH]c2c1C(=O)CCC2 [DCB-70058, (Z)-5-(4-hydroxyl-3-methoxyphenyl)-3-((3-(3-ethoxy-3-oxopropyl)-4-oxo-4,5,6,7-tetrahydro-1H-indol-2-yl)methylene)indolin-2-one]"
38.3%,357 nM,76.1%,–,12.4%,–,–,"COc1cc(-c2ccc3c(c2)/C(=C/c2[nH]c4c(c2CCC(=O)O)C(=O)CCC4)C(=O)N3)ccc1O [DCB-70059, (Z)-5-(4-hydroxyl-3-methoxyphenyl)-3-((3-carboxyethyl-4-oxo-4,5,6,7-tetrahydro-1H-indol-2-yl)methylene)indolin-2-one]"
67.5%,–,-7.2%,–,-4.1%,–,–,"CCOC(=O)CCc1c(/C=C2\C(=O)Nc3ccc([N+](=O)[O-])cc32)[nH]c2c1C(=O)CCC2 [DCB-70062, (Z)-5-nitro-3-((3-(3-ethoxy-3-oxopropyl)-4-oxo-4,5,6,7-tetrahydro-1H-indol-2-yl)methylene)indolin-2-one]"
79.7%,724 nM,56.6%,–,3.4%,–,–,"O=C(O)CCc1c(/C=C2\C(=O)Nc3ccc([N+](=O)[O-])cc32)[nH]c2c1C(=O)CCC2 [DCB-70063, (Z)-5-nitro-3-((3-carboxyethyl-4-oxo-4,5,6,7-tetrahydro-1H-indol-2-yl)methylene)indolin-2-one]"
56.7%,313 nM,78.6%,–,22.2%,–,–,"CCOC(=O)CCc1c(/C=C2\C(=O)Nc3ccc(S(=O)(=O)NC)cc32)[nH]c2c1C(=O)CCC2 [DCB-70064, (Z)-5-(N-methylsulfamoyl)-3-((3-(3-ethoxy-3-oxopropyl)-4-oxo-4,5,6,7-tetrahydro-1H-indol-2-yl)methylene)indolin-2-one]"
17.3%,30.8 nM,97.3%,–,25.6%,–,–,"CNS(=O)(=O)c1ccc2c(c1)/C(=C/c1[nH]c3c(c1CCC(=O)O)C(=O)CCC3)C(=O)N2 [DCB-70065, (Z)-5-(N-methylsulfamoyl)-3-((3-carboxyethyl-4-oxo-4,5,6,7-tetrahydro-1H-indol-2-yl)methylene)indolin-2-one]"
85.4%,–,40.1%,–,25.3%,–,–,"CCOC(=O)CCc1c(/C=C2\C(=O)Nc3cc(-c4ccc(O)cc4)ccc32)[nH]c2c1C(=O)CCC2 [DCB-70066, (Z)-6-(4-hydroxyphenyl)-3-((3-(3-ethoxy-3-oxopropyl)-4-oxo-4,5,6,7-tetrahydro-1H-indol-2-yl)methylene)indolin-2-one]"
22%,–,5.2%,–,-1.3%,–,–,"CCOC(=O)CCc1c(/C=C2\C(=O)Nc3ccc(-c4ccc(OC)c(OC)c4)cc32)[nH]c2c1C(=O)CCC2 [DCB-70067, (Z)-5-(3,4-dimethoxyphenyl)-3-((3-(3-ethoxy-3-oxopropyl)-4-oxo-4,5,6,7-tetrahydro-1H-indol-2-yl)methylene)indolin-2-one]"
20.6%,560 nM,54%,–,5.1%,–,–,"COc1ccc(-c2ccc3c(c2)/C(=C/c2[nH]c4c(c2CCC(=O)O)C(=O)CCC4)C(=O)N3)cc1OC [DCB-70068, (Z)-5-(3,4-dimethoxyphenyl)-3-((3-carboxyethyl-4-oxo-4,5,6,7-tetrahydro-1H-indol-2-yl)methylene)indolin-2-one]"
6.8%,–,16.5%,–,-2.6%,–,–,"CCOC(=O)CCc1c(/C=C2\C(=O)Nc3ccc(-c4cc5ccccc5s4)cc32)[nH]c2c1C(=O)CCC2 [DCB-70069, (Z)-5-(benzo[b]thiophen-2-yl)-3-((3-(3-ethoxy-3-oxopropyl)-4-oxo-4,5,6,7-tetrahydro-1H-indol-2-yl)methylene)indolin-2-one]"
18.7%,–,31.4%,–,-2.7%,–,–,"O=C(O)CCc1c(/C=C2\C(=O)Nc3ccc(-c4cc5ccccc5s4)cc32)[nH]c2c1C(=O)CCC2 [DCB-70070, (Z)-5-(benzo[b]thiophen-2-yl)-3-((3-carboxyethyl-4-oxo-4,5,6,7-tetrahydro-1H-indol-2-yl)methylene)indolin-2-one]"
43.1%,270 nM,82.1%,–,11.2%,–,–,"O=C(O)CCc1c(/C=C2\C(=O)Nc3ccc(S(=O)(=O)Cc4ccccc4)cc32)[nH]c2c1C(=O)CCC2 [DCB-70071, (Z)-5-benzylsulfonyl-3-((3-carboxyethyl-4-oxo-4,5,6,7-tetrahydro-1H-indol-2-yl)methylene)indolin-2-one]"
34.5%,443 nM,71.1%,–,15.5%,–,–,"O=C(O)CCc1c(/C=C2\C(=O)Nc3ccc(S(=O)(=O)Cc4ccc(F)cc4)cc32)[nH]c2c1C(=O)CCC2 [DCB-70072, (Z)-5-(4-fluorobenzylsulfonyl)-3-((3-carboxyethyl-4-oxo-4,5,6,7-tetrahydro-1H-indol-2-yl)methylene)indolin-2-one]"
29.3%,–,65.5%,–,9.4%,–,–,"O=C(O)CCc1c(/C=C2\C(=O)Nc3ccc(S(=O)(=O)Cc4c(Cl)cccc4Cl)cc32)[nH]c2c1C(=O)CCC2 [DCB-70073, (Z)-5-(2,6-dichlorobenzylsulfonyl)-3-((3-carboxyethyl-4-oxo-4,5,6,7-tetrahydro-1H-indol-2-yl)methylene)indolin-2-one]"
